{"source": "patent US20120039926A1", "about": "“Compositions and Methods for Modulating Immunogenic Responses by Activating Dendritic Cells” (priority 2009, published 2012)", "key": {"[1]": {"system": "A/J or C57BL/6 female mice", "type": "in vivo, mouse"}, "[2]": {"system": "A/J or C57BL/6 female mice", "type": "in vivo, mouse", "conditions": "sera of days 3, 10 and 24"}, "[3]": {"system": "C57BL/6 bone marrow (BM) cells", "type": "cell-based, mouse", "conditions": "second day after treatment, 14.5 micromoles"}, "[4]": {"system": "CD3- BM cells", "experiment": "Surface CD8 and intracellular IL-12p70 in CD3-depleted bone marrow cells", "type": "cell-based, mouse", "conditions": "BM cells after treatment", "from_the_text": "CD3+ cells were removed from BM cells using the fluorescence activated cell sorter and then untreated or treated with JgD or JH. Flow cytometric analysis of the sorted population confirmed the removal of CD3 positive cells. The CD3− BM cells were labeled with FITC-anti-CD8 (Beckman Coulter (clone 53-6.7)), fixed with paraformaldehyde, permeabilized with saponin (Intraprep, Immunotech), labeled with PE-anti-IL-12p70 (Beckman Coulter) and then post fixed with paraformaldehyde prior to immunofluorescence analysis."}, "[5]": {"system": "BM cells", "experiment": "Protein array of spent medium from treated BM cells", "type": "cell-based, mouse", "protocol": "Bone marrow (BM) cells were prepared. Briefly, the femurs and tibias were obtained from five C57BL/6 female mice, and the ends were removed to expose the hollow bone packed with marrow. BM cells were flushed from the bones with cold Hanks Balanced Salt Solution (HBSS) using a sterile disposable 22 g needle and pooled. Red blood cells (RBCs) were lysed using Tris-buffered ammonium chloride and resultant cells were washed 3 times in HBSS. BM cells were suspended in tissue culture medium (TCM) (RPMI 1640 with glutaminie plus […] PenStrep, 50 uM 2-mercaptoethanol, and 5% fetal calf serum) at approximately 5×10^6 cells/ml and incubated for 1 hour at 37° C. in a 5% CO2 atmosphere in plastic tissue culture flasks to remove adherent, mature macrophages. Decanted non-adherent cells were resuspended in TCM and 1.5×10^6 BM cells in 1 ml were placed into each well of a 24-well tissue culture plate (Falcon) and either left untreated or treated with 14.5 micromoles of J, gD, JgD or JH vaccines. After incubation for 48 hrs at 37° C., cells were viewed and photographed for changes in morphology, tissue culture supernatants were removed and the cells were prepared for flow cytometric analysis."}, "[6]": {"system": "human monocytes", "type": "cell-based", "conditions": "DC precursors (GMCSF and IL4), spent medium"}}}
{"substance": "J-ICBL: immune cell binding ligand, amino acid 38-50 from the β-2-microglobulin (DLLKNGERIEKVE), unconjugated", "values": [{"measurement": "IL-10 serum level relative to adjuvant control", "setting": "[1]", "result": "significantly decreased to only a half or to a third"}, {"measurement": "IL-12p40 serum level", "setting": "[1]; versus adjuvant control", "result": "small but not significant increase"}, {"measurement": "IL-12p70 serum level", "setting": "[1]; versus adjuvant control", "result": "small but not significant increase"}, {"measurement": "IL-12p70 in sera (direct ELISA), in words", "setting": "[2]", "result": "only trace or undetectable amounts"}, {"measurement": "CD11c expression on monocyte population of BM cells", "setting": "[3]", "result": "no discernable change"}, {"measurement": "CD86 expression on monocyte population of BM cells", "setting": "[3]", "result": "no discernable change"}, {"measurement": "IL-12p70 expressing cells", "setting": "[4]", "result": "no significant increase"}, {"measurement": "cytokine response in spent medium of treated BM cells", "setting": "[5]", "result": "failed to detect a cytokine response"}, {"measurement": "production of cytokines (protein array)", "setting": "[6]", "result": "no significant production of cytokines"}]}
